SMILES strings stand for the structures.

In data set [1] the test system is patients with systemic scleroderma. In kind it is in vivo. The method, then:
(§1) Treatment with melatonin was administered to ambulant patients with various forms of systemic scleroderma, in various stages of the disease, and to patients with sarcoidosis.
(§2) The patients and methods were as follows:
(§3) Ten patients with systemic scleroderma in an active phase and four patients with pulmonary sarcoidosis were selected.
The clinical characteristics of the patients with systemic scleroderma and the level of activity and severity of the disease were assessed with the aid of a skin score (cf. annexe) and information obtained from lung function tests, a chest X-ray, pulmonary CAT and numerous laboratory tests (antinuclear antibodies (A), A to the extractable nuclear antigen Scl-70, antinucleolar A, anti-DNA A, antimicrosome A, anticentromeric A, ESR, ACE, CRP, gamma globulins).
To assess the effects of the treatment, the skin-score, ESR, ACE, CRP were determined monthly, the lung function tests were performed every 2 months, and chest X-ray and/or thoracic CAT carried out at the end of a 4-month course of treatment.
(§4) When the clinical evaluation had been completed and after all the laboratory tests had been performed, the patients with systemic scleroderma and sarcoidosis received in a daily dose of 20 mg taken by mouth as a single dose between 18.00 and 20.00 hours. This timing was chosen with the aim of interfering as little as possible with the circadian rhythm of endogenous melatonin secretion.
The clinical investigations and laboratory tests performed at the start of the combined treatment therefore served both as a control on the treatment with hydroxychloroquine and to provide the base values for the tests performed during the treatment with melatonin.
(§5) The other patients with systemic scleroderma and those with sarcoidosis received only melatonin.

Data set [2] has as its system patients with pulmonary sarcoidosis. The data set is described as follows: Four-month oral melatonin treatment of patients with pulmonary sarcoidosis. In kind it is in vivo. How it is done:
as §1, §2, §3
The diagnosis was made on the basis of histological tests performed on biopsy samples, the BAL for the T-lymphocyte count and scintigraphy with gallium-67. Overall lung function tests, a chest X-ray and numerous laboratory tests (ACE, blood calcium, urinary calcium, ESR, etc.) were also performed.
The effects of the treatment were evaluated monthly on the basis of any changes in lung function and ACE levels and at the end of the four-month period on the basis of any changes in the radiological findings.
as §4, §5

The test system of a further data set is cancer patients. Particulars: cancer patients no longer responsive to conventional therapies; cited from earlier work.
In data set [3] the test system is patients with Parkinson's disease. Particulars: cited from earlier work.
Setting [4] is: 20 mg melatonin per day for four months.

As to `COc1ccc2[nH]cc(CCNC(C)=O)c2c1` [melatonin, 5-methoxy-N-acetyltryptamine], in data set [1] (setting [4]), the “CRP or gamma globulin values” is “No significant changes”. Also, the subjective respiratory disturbances entry in data set [1] (setting [4]) was “marked subjective reduction”. Moreover, the lung function tests entry was “significant improvement in nine of the ten patients” in data set [1] (20 mg melatonin per day for four months, ten patients); “the findings in three patients had returned to normal and the fourth patient showed marked improvement” in data set [2] (end of the four-month course, four patients). Besides, the skin score result in data set [1] (20 mg melatonin per day for four months, ten patients (FIG.1)) is “highly positive results”. The “chest X-ray” value in data set [1] (after 4 months of treatment, all patients) is “No significant changes were found in any of the patients”. Further, in data set [1] (throughout the course of treatment, 20 mg per day), the ESR result was “It was not possible to demonstrate that the hormone treatment had an effect on this parameter”. Also, the “radiological investigation (changes affecting the hilum and the pulmonary parenchyma)” value in data set [2] (end of the four-month course) is reported as “definitive reduction”. The “fall of BAL lymphocyte count” value in data set [2] (end of the four-month course, on average) stood at 70%. Besides, the ACE entry in data set [2] (monthly determination, 20 mg per day, all cases (FIG.2)) is listed as “the values gradually returned to normal”. In addition, the “patients' general condition and disease course” value in the data set on cancer patients was “the patients' general condition showed improvement and the disease was temporarily stabilized”. Also, the demonstrable advantages result in data set [3] (daily doses of up to 6 g) is listed as “no demonstrable advantages”. Besides, the adverse effects result in data set [3] (human, in vivo) is recorded as “no adverse effects”.

These data come from patent publication EP0605371A1 (priority 1992, dated 1994).
